Test system: α7 integrin promoter
Experiment: muscle cell-based assay: α7βgal+/− myoblasts/myotubes, LacZ reporter, β-galactosidase cleavage of FDG
Parameters: species or system mouse; Results in α7+/− β-galactosidase assay: scale not given here
Details: for EC50 / AC50 / Emax: Mus musculus; for EC50: given as log AC50 (negative values), read-out: Fit LogAC50 (converted); for Fit Curve Class: key not given; for Results in a α7+/− β-galactosidase assay, Myotubes, 0.5 uM: compound at 0.5 uM; for Results in a α7+/− β-galactosidase assay, Myotubes, 1 uM: compound at 1 uM; for Results in a α7+/− β-galactosidase assay, Myotubes, 5 uM: compound at 5 uM; for Results in a α7+/− β-galactosidase assay, Myotubes, 10 uM: compound at 10 uM; for Results in a α7+/− β-galactosidase assay, Myotubes, 20 uM: compound at 20 uM; for Results in a α7+/− β-galactosidase assay, Myotubes, 40 uM: compound at 40 uM; for Results in α7+/− β-galactosidase assay / Result in α7+/− β-galactosidase assay: Myoblasts; for AC50: log of AC50, given with negative sign, unit of AC50 not given, read-out: Fit Log AC50 (converted); for Emax: read-out: Max Response [%]
Method in brief: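 Fluorescein generated from FDG by β-galactosidase reports α7 integrin promoter activity in differentiated myoblasts from α7+/− LacZ knock-in pups. Screening hits then went to dose-response, western blotting and a myostatin counterscreen.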

[1] = curve fit, activity at zero concentration
[2] = Table 12, fitted activity at zero concentration
[3] = Table 12 Compound data, concentration-response curve fit

Cn1ccc(C(=O)Nc2cccnc2Cl)n1 [Compound 140]
EC50: 10 µM
Score (Table 12 compound data): 42
Fit Curve Class (curve class number): 2.2
Fit HillSlope (curve fit): 2.7868
Fit Zero Activity [%] [1]: −4.0391%

COc1ccc(S(=O)(=O)Nc2ccc(S(=O)(=O)Nc3nccs3)cc2)cc1 [Compound 152]
EC50: 12.6 µM
Score (Table 12 compound data): 42
Fit Curve Class (curve class number): 2.2
Fit HillSlope (curve fit): 1.1341
Fit Zero Activity [%] [1]: −8.4801%

O=C(c1ccccc1)N1CCN(S(=O)(=O)c2cccs2)CC1 [drawing 341]
Results in a α7+/− β-galactosidase assay, Myotubes, 0.5 uM: 0.0882
Results in a α7+/− β-galactosidase assay, Myotubes, 1 uM: 0.04972
Results in a α7+/− β-galactosidase assay, Myotubes, 5 uM: 0.07204
Results in a α7+/− β-galactosidase assay, Myotubes, 10 uM: −0.06595
Results in a α7+/− β-galactosidase assay, Myotubes, 20 uM: −0.01414
Results in a α7+/− β-galactosidase assay, Myotubes, 40 uM: −0.06305

C=CCc1c(C)nc(-c2ccccc2)nc1N/N=C(\C)c1ccc(N)cc1 [drawing 662]
Results in α7+/− β-galactosidase assay (0.5 uM): −0.00814
Results in α7+/− β-galactosidase assay (1 uM): −0.05498
Results in α7+/− β-galactosidase assay (5 uM): 0.04244
Results in α7+/− β-galactosidase assay (10 uM): 0.0834
Results in α7+/− β-galactosidase assay (20 uM): −0.05956
Results in α7+/− β-galactosidase assay (40 uM): −0.02989

C=CCc1c(C)nc(-c2ccccc2)nc1N/N=C(\C)c1ccc(N)cc1 [drawing 454]
Results in a α7+/− β-galactosidase assay, Myotubes, 0.5 uM: −0.04135
Results in a α7+/− β-galactosidase assay, Myotubes, 1 uM: −0.05977
Results in a α7+/− β-galactosidase assay, Myotubes, 5 uM: −0.2067
Results in a α7+/− β-galactosidase assay, Myotubes, 10 uM: 0.05284
Results in a α7+/− β-galactosidase assay, Myotubes, 20 uM: −0.1823
Results in a α7+/− β-galactosidase assay, Myotubes, 40 uM: 0.1021

Cc1ccc(Cn2nnc3c(O)nc(C4CCCN(C(=O)c5ccco5)C4)nc32)cc1 (stereo not drawn) [drawing 683]
Results in α7+/− β-galactosidase assay (0.5 uM): 0.09519
Results in α7+/− β-galactosidase assay (1 uM): 0.1784
Results in α7+/− β-galactosidase assay (5 uM): −0.02152
Results in α7+/− β-galactosidase assay (10 uM): −0.00668
Results in α7+/− β-galactosidase assay (20 uM): −0.00332
Results in α7+/− β-galactosidase assay (40 uM): 0.06402

COc1cccc(C(=O)NCC(=O)N2CCC3(CC2)NCCc2[nH]cnc23)c1 [Compound 93]
AC50 (Table 12): 11.2 µM
Fit HillSlope (Table 12, curve fit): 1.7529
Fit Zero Activity [%] [2]: −3.6365%
Fit Curve Class (Table 12): 2.1
Score [3]: 43

Cc1cc(C)cc(OCC(=O)N/N=C/c2ccccn2)c1 [drawing 339]
Results in a α7+/− β-galactosidase assay, Myotubes, 0.5 uM: 0.02382
Results in a α7+/− β-galactosidase assay, Myotubes, 1 uM: 0.1393
Results in a α7+/− β-galactosidase assay, Myotubes, 5 uM: 0.05474
Results in a α7+/− β-galactosidase assay, Myotubes, 10 uM: −0.09985
Results in a α7+/− β-galactosidase assay, Myotubes, 20 uM: 0.0109
Results in a α7+/− β-galactosidase assay, Myotubes, 40 uM: 0.02169

CC1CCN(C(CNS(=O)(=O)c2ccccc2)c2ccccc2)CC1 (stereo not drawn) [drawing 612]
Results in α7+/− β-galactosidase assay (0.5 uM): 0.05229
Results in α7+/− β-galactosidase assay (1 uM): −0.05932
Results in α7+/− β-galactosidase assay (5 uM): −0.02531
Results in α7+/− β-galactosidase assay (10 uM): −0.1141
Results in α7+/− β-galactosidase assay (20 uM): −0.291
Results in α7+/− β-galactosidase assay (40 uM): −0.3822

COc1ccc(N(CC(=O)NCCC(C)C)C(=O)c2snc(C(=O)NC3CCCCC3)c2N)c(OC)c1 [Compound 98]
AC50 (Table 12): 10 µM
Fit HillSlope (Table 12, curve fit): 4.5045
Fit Zero Activity [%] [2]: −0.0479%
Fit Curve Class (Table 12): 2.1
Score [3]: 43

COc1ccc(Cl)cc1NC(=O)CC(=O)Nc1cc(Cl)ccc1OC [Compound 41]
AC50 (Table 12): 14.1 µM
Emax: 453%
Fit HillSlope (Table 12, curve fit): 4.5045
Fit Zero Activity [%] [2]: 8.8874%
Fit Curve Class (Table 12): 2.1
Score [3]: 48

COc1ccc(CN2CCNC(=O)C2CC(=O)NCCc2c[nH]c3ccccc23)c(OC)c1 (stereo not drawn) [drawing 692]
Results in α7+/− β-galactosidase assay (0.5 uM): 0.0135
Results in α7+/− β-galactosidase assay (1 uM): 0.04793
Results in α7+/− β-galactosidase assay (5 uM): 0.2102
Results in α7+/− β-galactosidase assay (10 uM): −0.04499
Results in α7+/− β-galactosidase assay (20 uM): −0.02608
Results in α7+/− β-galactosidase assay (40 uM): −0.01274

O=C1Nc2ccccc2/C1=C/c1cccnc1 [drawing 327]
Results in a α7+/− β-galactosidase assay, Myotubes, 0.5 uM: −0.03985
Results in a α7+/− β-galactosidase assay, Myotubes, 1 uM: 0.1859
Results in a α7+/− β-galactosidase assay, Myotubes, 5 uM: 0.1467
Results in a α7+/− β-galactosidase assay, Myotubes, 10 uM: 0.08556
Results in a α7+/− β-galactosidase assay, Myotubes, 20 uM: −0.2464
Results in a α7+/− β-galactosidase assay, Myotubes, 40 uM: −0.3705

O=c1oc2c(-c3cccc(F)c3)cc(O)cc2s1 [Compound 23]
AC50 (Table 12): 3.98 µM
Emax: 98.9%
Fit HillSlope (Table 12, curve fit): 2.9023
Fit Zero Activity [%] [2]: 13.3122%
Fit Curve Class (Table 12): 1.1
Score [3]: 84

COc1ccc(CCNC(=O)c2nn(C)c3c2CS(=O)(=O)c2ccccc2-3)cc1OC [Compound 74]
AC50 (Table 12): 4.47 µM
Fit HillSlope (Table 12, curve fit): 1.8617
Fit Zero Activity [%] [2]: −23.105%
Fit Curve Class (Table 12): 2.1
Score [3]: 44

CCOC(=O)c1sc(=N)n(-c2ccc(OC)cc2)c1C [drawing 711]
Result in α7+/− β-galactosidase assay (0.5 uM): 0.2274
Result in α7+/− β-galactosidase assay (1 uM): 0.1661
Result in α7+/− β-galactosidase assay (5 uM): −0.01196
Result in α7+/− β-galactosidase assay (10 uM): 0.01787
Result in α7+/− β-galactosidase assay (20 uM): −0.3971
Result in α7+/− β-galactosidase assay (40 uM): −0.6044

CCC(C)n1nc(O)cc1N (stereo not drawn) [drawing 433]
Results in a α7+/− β-galactosidase assay, Myotubes, 0.5 uM: 0.1351
Results in a α7+/− β-galactosidase assay, Myotubes, 1 uM: −0.05991
Results in a α7+/− β-galactosidase assay, Myotubes, 5 uM: −0.1063
Results in a α7+/− β-galactosidase assay, Myotubes, 10 uM: −0.1016
Results in a α7+/− β-galactosidase assay, Myotubes, 20 uM: −0.1631
Results in a α7+/− β-galactosidase assay, Myotubes, 40 uM: −0.144

COc1ccc(OC)c(S(=O)(=O)Nc2c(NC3CCCCC3)c3ccccc3oc2=O)c1 [drawing 656]
Results in α7+/− β-galactosidase assay (0.5 uM): −0.2127
Results in α7+/− β-galactosidase assay (1 uM): −0.1212
Results in α7+/− β-galactosidase assay (5 uM): 0.2955
Results in α7+/− β-galactosidase assay (10 uM): −0.031
Results in α7+/− β-galactosidase assay (20 uM): −0.2083
Results in α7+/− β-galactosidase assay (40 uM): −0.2716

COc1ccccc1-c1coc2c3c(ccc2c1=O)OC1CCCCN1C3 (stereo not drawn) [Compound 3]
AC50 (Table 12): 2.24 µM
Emax: 159%
Fit HillSlope (Table 12, curve fit): 3.0654
Fit Zero Activity [%] [2]: −35.3084%
Fit Curve Class (Table 12): 1.1
Score [3]: 89

Cc1ccc2c(c1)/C(=C/c1ccccc1)C(=O)N2 [drawing 457]
Results in a α7+/− β-galactosidase assay, Myotubes, 0.5 uM: −0.1541
Results in a α7+/− β-galactosidase assay, Myotubes, 1 uM: −0.09775
Results in a α7+/− β-galactosidase assay, Myotubes, 5 uM: −0.09703
Results in a α7+/− β-galactosidase assay, Myotubes, 10 uM: 0.151
Results in a α7+/− β-galactosidase assay, Myotubes, 20 uM: −0.411
Results in a α7+/− β-galactosidase assay, Myotubes, 40 uM: −0.4149

N=C(NOC(=O)c1cccc(C(F)(F)F)c1)c1cnccn1 [drawing 577]
Results in α7+/− β-galactosidase assay (0.5 uM): −0.05513
Results in α7+/− β-galactosidase assay (1 uM): 0.02871
Results in α7+/− β-galactosidase assay (5 uM): −0.00636
Results in α7+/− β-galactosidase assay (10 uM): −0.02595
Results in α7+/− β-galactosidase assay (20 uM): 0.07472
Results in α7+/− β-galactosidase assay (40 uM): 0.1346

COc1ccc(/C=C(\NC(=O)c2ccc(C)cc2)C(=O)Nc2ccc(C(=O)O)cc2)cc1 [Compound 160]
EC50: 11.2 µM
Score (Table 12 compound data): 42
Fit Curve Class (curve class number): 2.1
Fit HillSlope (curve fit): 4.095
Fit Zero Activity [%] [1]: −2.4804%

Source: US10028992B2, “Methods of treating muscular dystrophy” (BOARD OF REGENTS OF THE NEVADA SYSTEM OF HIGHER EDUCATION …, priority 2012, dated 2018)
